Results taken from patent publication US20200038355A1, “ANTIOXIDANTS FOR USE IN OPHTHALMIC SURGERY” (Case Western Reserve University, priority 2017, published 2020).
“Also recorded” adds a separate entry of the source.

Columns and labels:
mice = assay: Mouse mock cataract surgery in vivo, immunofluorescence of EMT markers
Experimental: Age-matched four month old mice were used in this study. Mice were anesthetized and a central corneal incision was made. The lens fiber mass was removed by hydrodissection and the remaining lens was carefully washed by HBSS to remove any lens fiber debris. Saline buffer was injected to help mice to restore their proper eye shape. Eye drops containing the antibiotic Ofloxacin were applied once immediately after surgery, and mice were sacrificed at 2, 3, 4 and 5 days after surgery. For each mouse, bilateral surgeries were performed and 25 μl of 10 mM NAC or 2 mM of GSH-EE was injected into right eye chamber immediately after surgery and continual eye drop topical application was given every 6 hr from 7 am to 11 pm. The untreated left eye served as a control. Eyes collected immediately after surgery served as time zero control. At least 6 mice were used in each group. At each time point, eyes were carefully dissected and placed in 4% paraformaldehyde for 18 hr, and then subjected to paraffin embedding and sectioning. For paraffin embedded slides, 6 μm thick sections were deparaffinized and rehydrated using standard procedure. The slides were rinsed with PBS for 10 min and antigen retrieval was carried out in 0.1M sodium citrate, pH 6.0 buffer in a microwave oven using a 4 min at power 5 plus 8 min at power 3 program. The slides were then blocked and permeabilized with 5% normal goat serum, 0.3% triton X-100 for 30 min. The primary antibody, rabbit polyclonal collagen I antibody (1:250) (Abcam, Cambridge, Mass.), rabbit polyclonal vimentin (1:500) (ThermoFisher), mouse monoclonal fibronectin antibody (1:5) (Developmental Studies Hybridoma Bank, DSHB, University of Iowa), mouse monoclonal active β-catenin (Tyr489) (1:10) (DSHB) or FITC labeled mouse monoclonal αSMA antibody (1:1000) (Sigma-Aldrich) were applied in 0.1% BSA PBS solution and incubated at 4° C. overnight in a humid chamber. After wash, the Alexa-488 or/and Alexa-594 conjugated secondary antibodies (ThermoFisher) were then applied and incubated at room temperature for one hour in a humid chamber. After wash, the slides were mounted with Prolong antifade with DAPI (ThermoFisher). For lens explant culture, the explant was briefly fixed with 10% formaldehyde for 10 min and then subjected to directly staining procedure without antigen retrieval procedure. Confocal microscope—All confocal images were collected by a Leica SP8 gSTED confocal microscope equipped with two 3 Hyd SP GaAsP detectors and the AOBS system lasers include a 405 nm, Argon (458, 476, 488, 496, 514 nm), a tunable white light (470 to 670 nm), and a 592 nm STED depletion laser. For proper comparison, each channel of fluorescence was adjusted to the highest sensitivity/intensity but without over saturation from samples with the strongest signal. […]

[1] = test system: mouse lens ex vivo culture; assay: Mouse whole lens ex vivo culture, lens capsule immunoblot; assay type: cell-based; details: for αSMA production after BSO stimulation: ex vivo cultured mouse lens (lens capsule), 10 mM NAC or 0.5 mM GSH-EE with 500 μM BSO, 48 hr; for TGFβ2-mediated αSMA production: lens capsule from whole lens culture, 10 mM NAC or 0.5 mM GSH-EE with 1 ng/ml TGFβ2, 48 hr
Experimental: The isolated intact lens was rinsed three times with HBSS and then cultured in 12-well-plates with serum-free Medium 199 (ThermoFisher) with 50 unit/ml penicillin streptomycin at 37° C. in 5% CO2 incubator, as described above. The lens explant was cultured following the same procedure as described by a previous report. […] et al., Exp Eye Res 71, 591-597 (2000). In brief, the mouse lens was placed in an anterior-toposterior orientation with the anterior attached to the culture dish. The lens posterior capsule was torn/cut by the tip of extra-fine forceps and then peeled towards anterior capsule and pinned on the plastic culture dish. The lens fiber mass was removed thereafter. The explant was cultured in serum-free MEM medium supplied with 50 unit/ml penicillin streptomycin at 37° C. in 5% CO2 incubator as described above. Only healthy growing explants were used for the described study and any unhealthy looking explants, such as folded explants or those with cell detachment, were discarded. Cells were placed 24 hr before the treatment and fresh medium was replaced immediately before the treatment. The indicated concentrations of BSO, DMF, NAC, GSH-EE or TGFβ2 were added to fresh medium and incubated at various time intervals as indicated. After treatment time, the cells were harvested after three washes with ice-cold PBS and subjected to immunoblot or other assays as described below. For whole lens culture, the serum-free medium with or without BSO, NAC, GSH-EE or TGFβ2 was incubated immediately after isolation for 48 hr and the whole lens or lens capsule was collected for further analysis. For lens explant culture, 48 hr after explant culture, various stimulates were used in fresh serum-free medium for an additional 48 hr, and the explant was fixed with 10% formaldehyde for 10 min before immunofluorescence stain, as described below. The cells, whole lens, lens capsule, and lens fibers were collected and lysed in lysis buffer containing 20 mM Tris pH 7.5, 1 mM EDTA, 1 mM EGTA, 150 mM NaCl, 1% Triton X-100, 2.5 mM sodium pyrophosphate, 1 mM bα-Glycerolphosphate, 1 mM Na3VO4, 1 mg/ml Leupeptin, 1 mM PMSF on ice for 10 min. The protein concentration from the supernatant was determined by protein BCA assay (ThermoFisher). The protein extract was further processed for immunoblot analysis and probed for αSMA, collagen I, vimentin, phosphorylated Smad2, phosphorylated Smad3, phosphorylated GSK-3β and (β-catenin. All data were normalized to the level of GAPDH.

Row | Structure (SMILES) | production of EMT marker proteins (fibronectin, vimentin, collagen I, αSMA) (mice; Gclm KO mice, 2 mM GSH-EE) | αSMA production after BSO stimulation [1] | TGFβ2-mediated αSMA production [1] | TGFβ2-mediated αSMA production ([1]; listed as GSHEE) | nuclear colocalization (translocation) of active β-catenin (mice; Gclc−/− (LEGSKO) mice, 72 hr after surgery, 10 mM NAC injected into eye chamber plus eye drops every 6 hours) | fibronectin/vimentin and collagen I/αSMA expression compared to control eyes (mice; WT and LEGSKO mice, 10 mM NAC injection immediately after surgery and continuous topical application) | inhibitory effect on EMT process compared with GSH-EE (mice; in vivo cataract surgery models)
1 | CCOC(=O)CNC(=O)[C@H](CS)NC(=O)CC[C@H](N)C(=O)O [GSH-EE, glutathione ethyl ester] | partially but significantly attenuate | alleviated; also recorded: partially, but significantly, block | significantly alleviate | alleviated |  |  | 
2 | CC(=O)N[C@@H](CS)C(=O)O [NAC, N-acetyl cysteine] |  | alleviated; also recorded: completely abolish | alleviated; also recorded: completely block |  | significantly attenuated | remarkable attenuation | much higher inhibitory effect than GSH-EE
